Test results reported in patent US6989364B1, “Methods for treating cardiac hypertrophy by administering IFN-γ” (Genentech, Inc., priority 1998, dated 2006).

Tests used:
[1] = system: adult rat cardiac myocytes; experiment: Inhibition of PGF2α-induced spreading response of adult myocytes; format: cell-based
Experimental: Myocytes were pre-incubated with saline vehicle or IFN-γ (500 U/ml) on day of isolation. A second addition of vehicle or IFN-γ was performed 24h after isolation, along with the addition of either vehicle or PGF2α (10^−7 M). After an additional 72 hr incubation, cells were fixed in glutaraldehyde, stained with eosin Y and viewed by fluorescence microscopy. A, B, C Cardiac myocytes after 4 days in culture: control, PGF2α, and PGF2α+IFN-γ, respectively. D, E, F Histographs showing maximum breadth of rod shaped cardiac myocytes versus percent frequency of breadth occurrence. The maximum breadth of rod-shaped cells was determined by fluorescence microscopy and imaging software. At least 200 rod shaped cells from a single experiment were examined per group.
Myocytes were pre-incubated with saline vehicle or IFN-γ on day of isolation. A second amount of IFN-γ was added 24 hr after isolation, along with the addition of either vehicle or PGF2α (10^−7 M). After an additional 72 hr incubation, cells were fixed in glutaraldehyde, stained with eosin Y and viewed under fluorescence. Quantitation of myocyte morphology: A control, B PGF2α, C PGF2α+IFN-γ (25 U/ml), D PGF2α+IFN-γ (100 U/ml), E PGF2α+IFN-γ (500 U/ml). Histographs showing maximum breadth of rod shaped cardiac myocytes versus percent frequency of breadth occurrence. The maximum breadth of rod-shaped cells was determined by fluorescence microscopy and imaging software. At least 200 rod shaped cells from a single experiment were examined per group.
In this assay, ventricular myocytes are isolated from a single (male Sprague-Dawley) rat, essentially following a modification of the procedure described in detail by Piper et al., “Adult ventricular rat heart muscle cells.” In: Cell Culture Techniques in Heart and Vessel Research, H. M. Piper, ed., Berlin: Spinger-Verlag, 1990, pp. 36–60. This procedure permits the isolation of adult ventricular myocytes and the long-term culture of these cells in the rod-shaped phenotype. […] Piper et al., supra; Lai et al., Am J. Physiol. 1996; 271 (Heart Circ. Phvsiol. 40):H2197–H2208. The inhibition of myocyte spreading induced by PGF2α, or PGF2α analogs, (e.g. fluprostenol) and phenylephrine by various potential inhibitors of cardiac hypertrophy is then tested. A detailed protocol is described in the examples that follow.
Adult myocyte cultures The procedure used for the isolation of ventricular myocytes from adult rats was a modification of a procedure described by Piper et al., supra, and is detailed in Lai et al., supra. For each myocyte preparation, one male Sprague-Dawley rat weighing about 250 g was anesthetized with pentobarbital sodium, and the heart was removed. Extraneous tissue was trimmed from the heart, and it was mounted onto a Langendorff system that was temperature controlled at 37° C. The heart was perfused with about 40 ml of Krebs buffer (110 mM NaCl, 2.6 mM KCl, 1.2 mM KH2PO4, 1.2 mM MgSO4.7H2O, 25 mM NaHCO3 and 11 mM glucose). A solution containing 30 mg of collagenase and 12.5 μl of 100 mM CaCl2 in 50 ml of Krebs buffer was then recirculated through the heart for 30 minutes. The heart was removed from the Langendorff apparatus, and the atria and connective tissues were removed. The ventricles were cut into 2 mm cubes with dissecting scissors, and further digested in a fresh collagenase solution (30 mg collagenase and 400 mg BSA dissolved in Krebs buffer with 12.5 μl of 100 mM CaCl2) for five minutes at 37° C. During the digestion, the tissue suspension was gently band shaken one time per minute. After the digestion, the supernatant was removed and saved, and the remaining tissue was further digested in fresh collagenase solution for an additional five minutes.

[2] = system: male Sprague/Dawley (SD) rats; conditions: s.c. twice a day; previous study, Lai et al.; cited from earlier work
[3] = system: male Sprague/Dawley (SD) rats; experiment: Cardiac hypertrophy induced by fluprostenol in vivo: body and organ weights; parameters: species or system rat
From the text: This pharmacological model tests the ability of IFN-γ to inhibit cardiac hypertrophy induced in rats (e.g. male Wistar or Sprague-Dawley) by subcutaneous injection of fluprostenol (an agonist analog of PGF2α). It is known that rats with pathologic cardiac hypertrophy induced by myocardial infarction have chronically elevated levels of extractable PGF2α in their myocardium. Lai et al, Am. J. Physiol. (Heart Circ. Physiol.) 271:H2197–H2208 (1996). Accordingly, factors that can inhibit the effects of fluprostenol on myocardial growth in vivo are potentially useful for treating cardiac hypertrophy. The effects of IFN-γ on cardiac hypertrophy are determined by measuring the weight of heart, ventricles, and left ventricle (normalized by body weight) relative to fluprostenol-treated rats not receiving IFN-γ. A detailed description of this assay is provided in the examples.
Animals All experimental procedures conformed to the guiding principles of the American Physiology Society, and were approved by Genentech's Institutional Animal Care and Use Committee. The animals used in this study were male Sprague/Dawley (SD) rats (8 weeks of age, Charles River Breeding Laboratories, Inc.). The animals were acclimated to the facility for at least one week before experiments, fed a pelleted rat chow and water ad libitum, and housed in a light and temperature controlled room.
Administration of fluprostenol and/or IFN-γ Rats received subcutaneous injection of fluprostenol (Cayman Chemical, Ann Arbor, Mich.) at 0.15 mg/kg, recombinant mouse IFN-γ (Genentech, Inc., South San Francisco, Calif.) at 0.08 mg/kg, combination of fluprostenol and IFN-γ, or saline vehicle, twice a day for 14 days. In the IFN-γ and fluprostenol+IFN-γ groups, animals were pretreated with IFN-γ for one day. Body weight was measured before and after treatment. A previous study has shown that the dose of fluprostenol used here is the lowest dose which produces a significant cardiac hypertrophy in rats. Lai et al., supra.
Measurement of organ weights Under anesthesia with ketamine/xylazine, the heart, kidney, and spleen were removed, dissected and weighed. The left ventricle was stored at […] for evaluation of gene expression.
Statistical analyisis Results are expressed as mean±SEM. One way analysis of variance (ANOVA) was performed to assess differences in parameters between groups. Significant differences were then subjected to post hoc analysis using Newman-Keuls method; P<0.05 was considered significant.

[4] = system: male Sprague/Dawley (SD) rats; experiment: Hemodynamic assessment (MAP) in rats treated with fluprostenol and/or IFN-γ; format: in vivo, rat; conditions: conscious rats, 14 days of treatment (FIG. 5)
Experimental: Hemodynamic assessment Thirteen days after treatment, rats were anesthetized with intraperitoreal injection of ketamine 80 mg/kg (Aveco Co., Inc., Fort Dodge, Iowa) and xylazine 10 mg/kg (Rugby Laboratories, Inc., Rockville Center, N.Y.). A catheter (PE-10 fused with PE 50) filled with heparin-saline solution (50 U/ml) was implanted into the abdominal aorta, via the right femoral artery, for measurement of mean arterial pressure (MAP) and heart rate (HR). The catheter was exteriorized and fixed at the back of the neck.
One day after catheterization, the arterial catheter was connected to a Model CP 10 pressure transducer (Century Technology Company, Inglewood, Calif., USA) that was coupled to a Grass Model 7 polygraph (Grass Instruments, Quincy, Mass., USA). MAP and HR were measured simultaneously in conscious, unrestrained rats.

[5] = system: left ventricle of male Sprague/Dawley (SD) rats; experiment: Cardiac gene expression (real-time RT-PCR) in rats treated with fluprostenol and/or IFN-γ; format: in vivo, rat; conditions: normalized to GAPDH, FIG. 6
From the text: FIGS. 6A–6D Bargraphs showing the effect of fluprostenol (FLUP) and IFN-γ on: A Skeletal actin (SKA); B Sarcoplasmic reticulum calcium ATPase (SRCA); C Collagen I (COL I); D Atrial natriuretic factor (ANF) expression. Expression levels are normalized to glyceraldehyde-3-phosphate dehydrogenase (GAPDH) message. VEH is vehicle. There were 7 animals per group and the data are presented as the mean±SEM. P<0.05 vs VEH group.
RNA preparation Total RNA was isolated using RNeasy Maxi Columns (Qïägen) according to the manufacturer's instructions.
RT-PCR Real-time RT-PCR (TaqMan) technology was used to compare the gene expression between the various treatment groups. An oligonucleotide probe containing a fluorescent reporter dye, […], at the 3′-end was designed to hybridize to the amplicon defined by two PCR primers. A 3′-blocking phosphate prevents extension of the probe. The reporter dye is released from the probe by the 5′ exonuclease activity of Taq polymerase during the extension phase of PCR reaction. […] The threshold cycle number (Ct), defined as the point where the reporter fluorescence reaches a value greater than 10 times the standard deviation of the baseline, is […] to the amount of amplicon produced from the sample. Since the fluorescence is detected during the exponential phase of the amplification, none of the reaction components are limiting. In each experiment, a control is analyzed that lacks the RNA template to monitor for contamination, and another control is included where the RT step is omitted to eliminate amplification of possible contaminating DNA as the source of the signal. Reactions are optimized to give the greatest fluorescence signal and smallest Ct by titration of magnesium and primer concentrations, and the product is run on an agarose gel to verify the presence of a single band at the predicted molecular weight. […]
Quantitation of the TaqMan results was performed as described by Heid et al., Genome Res. 6:986–994 (1996), with modifications. […]

[6] = s.c. twice a day for 14 days, fluprostenol 0.15 mg/kg, IFN-γ 0.08 mg/kg, mean ± SEM

Molecule: IL-1β: other cytokine tested for inhibition of the spreading response
- Ability of other cytokines to inhibit PGF2α induced myocyte spreading [1]: could not inhibit the spreading response

Molecule: O=C(O)CCC/C=C\C[C@@H]1[C@@H](/C=C/[C@@H](O)COc2cccc(C(F)(F)F)c2)[C@H](O)C[C@@H]1O (racemic) [fluprostenol, reference compound]
- Lowest dose which produces a significant cardiac hypertrophy in rats [2]: 0.15 mg/kg
- Ratio of heart, ventricular, and left ventricular weights to body weight (FIG. 4) ([3]; 14 days, fluprostenol and IFN-γ alone vs vehicle, fluprostenol+IFN-γ vs fluprostenol group): significant increase
- BWO, basal levels of body weight ([3]; before treatment, mean ± SEM): 292.3 ± 2.2 g
- BW, body weight post treatment [3, 6]: 381.1 ± 4.4 g
- HW, heart weight [3, 6]: 1.000 ± .018 g
- KW, kidney weight [3, 6]: 1.397 ± .038 g
- KW/BW, kidney weight to body weight [3, 6]: 3.632 ± .076 g/kg
- LVW, left ventricular weight [3, 6]: .740 ± .013 g
- SW, spleen weight [3, 6]: .880 ± .048 g
- SW/BW, spleen weight to body weight [3, 6]: 2.309 ± .130 g/kg
- VW, ventricular weight [3, 6]: .957 ± .017 g
- ΔBW, BW-BWO [3, 6]: 91.9 ± 4.0 g
- Mean arterial pressure (MAP) compared to vehicle [4]: significant decline
- Abundance of mRNA for α-skeletal actin, collagen I, and natriuretic factor in the heart vs vehicle [5]: increase in the abundance of mRNA
- mRNA for sarcoplasmic reticulum calcium ATPase in the heart vs vehicle [5]: significantly reduced

Molecule: IFN-α
- Ability of other cytokines to inhibit PGF2α induced myocyte spreading [1]: could not inhibit the spreading response

Molecule: prostaglandin F2α [PGF2α]
- Spreading response of adult myocytes (maximum cell breadth) vs control cells ([1]; 0.1 μM, P<0.001): induced a significant change in the maximum cell breadth

Molecule: TNF-α
- Ability of other cytokines to inhibit PGF2α induced myocyte spreading [1]: could not inhibit the spreading response

Molecule: IL-6: other cytokine tested for inhibition of the spreading response
- Ability of other cytokines to inhibit PGF2α induced myocyte spreading [1]: could not inhibit the spreading response

B1: IL-1α: other cytokine tested for inhibition of the spreading response (protein, UniProt P01583 113-271, looked up)
Interleukin-1 alpha: SAPFSFLSNVKYNFMRIIKYEFILNDALNQSIIRANDQYLTAAALHNLDEAVKFDMGAYKSSKDDAKITVILRISKTQLYVTAQDEDQPVLLKEMPEIPKTITGSETNLLFFWETHGTKNYFTSVAHPNLFIATKQDYWVCLAGGPPSITDFQILENQA
- Ability of other cytokines to inhibit PGF2α induced myocyte spreading [1]: could not inhibit the spreading response
